Laboratory results published in ChEMBL document CHEMBL1157377, “Atorvastatin is 10-fold more active in vitro than other statins against Plasmodium falciparum” (Antimicrob Agents Chemother, 2007).

What was measured:
[1] = tested on: Plasmodium falciparum; assay: Antiplasmodial activity against chloroquine-resistant Plasmodium falciparum W2; type: functional, organism-based
[2] = tested on: Plasmodium falciparum; assay: Antiplasmodial activity against chloroquine-sensitive Plasmodium falciparum 3D7; type: functional, organism-based
[3] = tested on: Plasmodium falciparum; assay: Antiplasmodial activity against chloroquine-resistant Plasmodium falciparum FCR3; type: functional, organism-based
[4] = tested on: Plasmodium falciparum; assay: Antiplasmodial activity against chloroquine-sensitive Plasmodium falciparum IMT031; type: functional, organism-based
[5] = tested on: Plasmodium falciparum; assay: Antiplasmodial activity against chloroquine-sensitive Plasmodium falciparum D6; type: functional, organism-based
[6] = tested on: Plasmodium falciparum; assay: Antiplasmodial activity against chloroquine-resistant Plasmodium falciparum Bre1; type: functional, organism-based
[7] = tested on: L6; assay: Toxicity against rat L6 cells assessed as induction of cell death at 100 uM; type: cell-based; settings: l6, 100 µM

SMILES	IC50 ([1]; Plasmodium falciparum, W2) [µM]	IC50 [2] [µM]	IC50 [3] [µM]	IC50 [4] [µM]	IC50 [5] [µM]	IC50 ([6]; Plasmodium falciparum, Bre1) [µM]	IC50 [1] [µM]	IC50 [6] [µM]	IC90 ([1]; Plasmodium falciparum, W2) [µM]	IC90 [2] [µM]	IC90 [3] [µM]	IC90 [4] [µM]	IC90 [5] [µM]	IC90 ([6]; Plasmodium falciparum, Bre1) [µM]	Activity [7] [%]
CCC(C)(C)C(=O)O[C@H]1C[C@@H](C)C=C2C=C[C@H](C)[C@H](CC[C@@H](O)C[C@@H](O)CC(=O)O)[C@H]21	58.9	69.8	76.7	36.9	51.3	48.4									
CC[C@H](C)C(=O)O[C@H]1C[C@@H](C)C=C2C=C[C@H](C)[C@H](CC[C@@H](O)C[C@@H](O)CC(=O)O)[C@H]21	103	95.3	43.9	57.8	44.3	52.6									
CC[C@H](C)C(=O)O[C@H]1CCC=C2C=C[C@H](C)[C@H](CC[C@@H](O)C[C@@H](O)CC(=O)O)[C@H]21 [listing 1 of 2 here]		> 200	> 200	> 200	> 200	> 200	88.5								
CC[C@H](C)C(=O)O[C@H]1CCC=C2C=C[C@H](C)[C@H](CC[C@@H](O)C[C@@H](O)CC(=O)O)[C@H]21 [listing 2 of 2 here]							> 200	102							
CC(C)c1c(C(=O)Nc2ccccc2)c(-c2ccccc2)c(-c2ccc(F)cc2)n1CC[C@@H](O)C[C@@H](O)CC(=O)O [ATORVASTATIN CALCIUM]	4.8	11.8	5.1	5.3	5.8	5.8			14.8	39	23.6	15.8	18.1	24	
CC(C)c1c(C(=O)Nc2ccccc2)c(-c2ccccc2)c(-c2ccc(F)cc2)n1CC[C@@H](O)C[C@@H](O)CC(=O)O [ATORVASTATIN]															27
CC(C)n1c(/C=C/C(O)CC(O)CC(=O)O)c(-c2ccc(F)cc2)c2ccccc21 (stereo not drawn) [FLUVASTATIN SODIUM]	90.2	108	116	87.1	92.3	92.5									
CC[C@H](C)C(=O)O[C@H]1C[C@@H](C)C=C2C=C[C@H](C)[C@H](CC[C@@H]3C[C@@H](O)CC(=O)O3)[C@H]21 [LOVASTATIN]	> 200	> 200	> 200	> 200	> 200	> 200									
CC[C@H](C)C(=O)O[C@H]1CCC=C2C=C[C@H](C)[C@H](CC[C@@H]3C[C@@H](O)CC(=O)O3)[C@H]21 [MEVASTATIN]	> 200	> 200	> 200	> 200	> 200	> 200									
CC[C@H](C)C(=O)O[C@H]1C[C@H](O)C=C2C=C[C@H](C)[C@H](CC[C@@H](O)C[C@@H](O)CC(=O)O)[C@H]21 [PRAVASTATIN SODIUM]	> 200	> 200	> 200	> 200	> 200	> 200									
CCC(C)(C)C(=O)O[C@H]1C[C@@H](C)C=C2C=C[C@H](C)[C@H](CC[C@@H]3C[C@@H](O)CC(=O)O3)[C@H]21 [SIMVASTATIN]	> 200	> 200	> 200	> 200	> 200	> 200									
